Laboratory results reported in patent publication US9901536B2, “Composition for improving skin, containing pomegranate concentrate as active ingredient” (HLSCIENCE CO., LTD., priority 2014, dated 2018).
Values joined by “and” are separate entries in the source; they are usually repeats but may differ in a detail not shown here. Equal entries are not always repeated.

What was measured:
[1] = system: melanin synthesis in Melan-a cells; experiment: Inhibition of melanin synthesis in Melan-a cells; type: cell-based, mouse; settings: 100 μM, 6 days
Procedure: For evaluation of skin-whitening effect, Melan-a cells derived from C57BL/6J (black, a/a) mouse, provided by Dr. Dorothy C Benette (St George's Hospital, London, UK), were used as an immortalized cell line (Bennett D C, Cooper P J, Hart I R. A line of non-tumorigenic mouse melanocyte, syngeneic with the B16 melanoma and requiring a tumor promoter for growth. Int J Cancer 1987; 39: 414-418). The cells were cultured at 37° C. in a 5% carbon dioxide incubator after adding the RPMI 1640 medium containing 10% fetal bovine serum, 50 U/mL penicillin, 50 μg/mL streptomycin, 200 nM phorbol 12-myristate 13-acetate (PMA).
Melan-a cells were seeded onto a 24-well plate with 3×10^4 cells/well. After culturing the cells in an incubator for 24 hours so that the cells adhered well to the plate, the test solution diluted with a culture medium to different concentrations were added to the respective wells. The test sample was treated once in 3 days, for a total of 6 days. […] The cells were lysed with 1 N NaOH and then centrifuged. After separating the supernatant, the total amount of proteins was quantified by measuring absorbance at 405 nm. The melanin content was determined from the protein quantity.

[2] = system: hyaluronan synthesis in HaCaT cells; experiment: Hyaluronan synthesis in keratinocytes by ELISA; type: cell-based, human; settings: 20 mM, 24 h
Procedure: Human keratinocytes (HaCaT cells, ATCC) were seeded onto the bottom of a culture dish and cultured at 37° C. in a 5% carbon dioxide incubator after adding Dulbecco's modified Eagle's medium (DMEM, Welgene, Korea) containing penicillin (100 IU/mL), streptomycin (10 μg/mL) and 10% FBS.
The skin-moisturizing effect of the samples was evaluated by measuring the degree of hyaluronan synthesis in keratinocytes by ELISA. For this, the HaCaT cells were seeded onto a plate at 5×10^4 cells/well and cultured for 24 hours. 24 hours later, the cells were treated with the test samples diluted with the DMEM cell culture medium (without supplements) and cultured for 24 hours. The cultured cells were recovered and the quantity of hyaluronan was measured by hyaluronan ELISA (R&D Systems, DY3614). The cells adherent to the bottom were washed with PBS and lysed with 1 N NaOH to determine the total amount of proteins. Then, the quantity of hyaluronan per given quantity of proteins was calculated.
The protein quantity was measured using a Bio-Rad DC protein kit according to the Lowry method.

[3] = system: elastase; experiment: Elastase inhibition assay; type: biochemical, human; settings: 10 μM
Procedure: The HDF-N fibroblasts were used to measure the effect of the test solution on elastase activity. For this, the cultured HDF-N cells were treated with 0.2 M Tris-HCl (pH 8.0) containing 0.1% Triton X-100 and lysed by sonication. After centrifuging at 3,000 rpm for 20 minutes and taking the supernatant, the activity of the enzyme was measured by quantifying it and the total protein quantity. For measurement of the elastase activity, the homogenized fibroblasts were treated with 200 μg/mL elastase, 0.2 M Tris-HCl buffer and the sample at different concentrations. After adding 50 mM STANA, a substrate specific for elastase, and incubating at 37° C., absorbance was measured at 405 nm. The degree of elastase activity inhibition was compared with a control group not treated with the test solution. Phosphoramidon was used as a positive control group.

[4] = system: MMP-1; experiment: Inhibition of UV-induced MMP-1 expression in HDF-N cells; type: cell-based, human; settings: UVA 5 J/cm^2, 1 μM
Procedure: (§1) For testing of wrinkle improvement, normal human primary dermal fibroblasts, neonatal (HDF-N) derived from the human neonatal foreskin were used. The cells were seeded onto the bottom of a culture dish and cultured at 37° C. in a 5% carbon dioxide incubator after adding the fibroblast basal medium (FBM, Lonza, CC-3131) containing 0.1% insulin, 0.1% rhFGF, 0.1% gentamicin and 2% FBS.
The effect of the test solution on UV-induced MMP-1 expression was evaluated in order to evaluate the wrinkle-improving effect of the sample by measuring the activity of matrix metalloproteinase (MMP-1) by immuno-ELISA assay. HDF-N cells were seeded onto a 24-well plate with 2×10^4 cells/well and then cultured for 24 hours. 24 hours later, after discarding the medium and washing with DPBS, 200 μL of DPBS was added and 5 J/cm^2 of UV-A was irradiated. After treating the cells with the sample diluted to an adequate concentration, the cells were cultured for 24 hours. Then, the culture medium was taken and the quantity of MMP-1 was measured with the human total MMP-1 ELISA kit (R&D Systems, DY901). The measured quantity of MMP-1 was calibrated with the total protein quantity.

[5] = system: procollagen synthesis in HDF-N cells; experiment: Procollagen synthesis (PIP EIA) in HDF-N cells; type: cell-based, human; settings: 10 ng/ml, 24 h
Procedure: as §1
In order to measure the effect of promoting procollagen synthesis of the test solution, HDF-N cells were seeded onto a 48-well plate with 1×10^4 cells/well and then cultured for 24 hours. Then, after maintaining a starvation state for 24 hours, the cells were treated with the test solution diluted with the cell culture medium FBM (without supplements) at different concentrations and then cultured for 24 hours. The cultured cells were recovered and the quantity of procollagen was measured using the procollagen type I c-peptide (PIP) EIA kit (Takara, MK101). The cells adherent to the bottom were washed with PBS and lysed with 1 N NaOH to determine the total amount of proteins. Then, the quantity of procollagen per given quantity of proteins was calculated.

Q: Which results are given for `OC[C@H]1O[C@@H](Oc2ccc(O)cc2)[C@H](O)[C@@H](O)[C@@H]1O` [Arbutin]?
A: melanin content, % control [1]: 73.54 ± 5.397 % control; melanin content, % control ([1]; listed as arbutin): melanin synthesis was inhibited

Q: How did the “hyaluronan, % control” value [2] turn out when `CC(=O)N[C@H]1C(O)O[C@H](CO)[C@@H](O)[C@@H]1O` (stereo partly drawn) [NAG, N-Acetyl-D-glucosamine] was run?
A: The value was 224.8 % control and 224.85 ± 16.937 % control.

Q: Which results are given for `CC(C)C[C@H](NP(=O)(O)O[C@@H]1O[C@@H](C)[C@H](O)[C@@H](O)[C@H]1O)C(=O)N[C@@H](Cc1c[nH]c2ccccc12)C(=O)O` [Phosphoramidon]?
A: elastase activity, % control [3]: 74.90 ± 5.962 % control; elastase activity, % control ([3]; listed as phosphoramidon): 74.9 % control

Q: `CC1=C(/C=C/C(C)=C/C=C/C(C)=C/C(=O)O)C(C)(C)CCC1` [Retinoic acid] was tested. Which “MMP-1 production, % UV−” value [4] did it give?
A: The value was 171.68 ± 10.422 % UV−.

Q: And the “MMP-1 production, % UV−” value ([4]; listed as retinoic acid)?
A: Its value is 171.6 % UV−.

Q: Which “procollagen production, % control” value [5] does the source give for Transforming growth factor-β [TGF-β] here?
A: The value was 150.8 % control and 150.88 ± 5.366 % control.
